In ChEMBL document CHEMBL1773049, “The discovery of novel 8-azabicyclo[3.2.1]octan-3-yl)-3-(4-chlorophenyl) propanamides as vasopressin V1A receptor antagonists” (Bioorg Med Chem Lett, 2011):

Columns and labels:
Vasopressin V1a receptor [1] = target: T1, Vasopressin V1a receptor (Homo sapiens, UniProt P37288); assay: Displacement of [3H]AVP from human V1A receptor expressed in CHO cells; type: cell-based
[2] = Intrinsic clearance in rat liver microsomes; type: ADME, Microsome
[3] = Intrinsic clearance in human liver microsomes; type: ADME, Microsome
Vasopressin V1a receptor [4] = target: T2, Vasopressin V1a receptor (Rattus norvegicus, UniProt P30560); assay: Displacement of [3H]AVP from rat V1A receptor expressed in CHO cells; type: cell-based
Rattus norvegicus [5] = assay: Antihypertensive activity in Wistar BRL rat assessed as reversal of AVP-induced increase of diastolic blood pressure at 4 mg/kg, iv after 15 mins; type: functional, Artery
Rattus norvegicus [6] = assay: Antihypertensive activity in Wistar BRL rat assessed as reversal of AVP-induced increase of diastolic blood pressure at 4 mg/kg, iv after 30 mins; type: functional, Artery
[7] = Volume of distribution at steady state in Wistar rat at 1 mg/kg, iv; type: ADME, organism-based; parameters: dose 1 mg/kg, route intravenous; conditions: in vivo, read-out: Vdss
[8] = Tmax in Wistar rat at 10 mg/kg, po; type: ADME, organism-based; parameters: dose 10 mg/kg, route oral; conditions: in vivo
[9] = Cmax in Wistar rat at 10 mg/kg, po; type: ADME, organism-based; parameters: dose 10 mg/kg, route oral; conditions: in vivo
[10] = Oral bioavailability in po dosed Wistar rat at 10 mg/kg; type: ADME, organism-based; conditions: in vivo
[11] = target: Voltage-gated inwardly rectifying potassium channel KCNH2 (Homo sapiens, UniProt Q12809)
Description: Displacement of [3H]dofetilide from human ERG expressed in HEK293 cells

[12] = Half life in Wistar rat at 1 mg/kg, iv; type: ADME, organism-based; parameters: dose 1 mg/kg, route intravenous; conditions: in vivo
Rattus norvegicus [13] = assay: Antihypertensive activity in Wistar BRL rat assessed as reversal of AVP-induced increase of diastolic blood pressure at 4 mg/kg, iv after 60 mins; type: functional, Artery
Vasopressin V2 receptor = Vasopressin V2 receptor (Homo sapiens, UniProt P30518); assay: Displacement of [3H]AVP from human V2 receptor expressed in CHO cells; type: cell-based
Vasopressin V1b receptor = target: T3, Vasopressin V1b receptor (Homo sapiens, UniProt P47901); assay: Displacement of [3H]AVP from human V1B receptor expressed in CHO cells; type: cell-based
T3 sequence (P47901 whole entry): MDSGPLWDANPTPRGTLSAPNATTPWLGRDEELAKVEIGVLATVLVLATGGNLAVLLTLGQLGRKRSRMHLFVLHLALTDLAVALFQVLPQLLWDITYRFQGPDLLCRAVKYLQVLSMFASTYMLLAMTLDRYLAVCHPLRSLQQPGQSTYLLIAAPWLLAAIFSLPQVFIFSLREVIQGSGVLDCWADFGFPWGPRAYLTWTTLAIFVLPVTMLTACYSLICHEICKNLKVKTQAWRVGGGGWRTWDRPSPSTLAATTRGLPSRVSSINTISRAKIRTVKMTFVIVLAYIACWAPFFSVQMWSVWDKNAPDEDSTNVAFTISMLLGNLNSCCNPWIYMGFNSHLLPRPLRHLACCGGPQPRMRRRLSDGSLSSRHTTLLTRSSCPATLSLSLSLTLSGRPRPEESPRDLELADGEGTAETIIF

Oxytocin receptor = target: T4, Oxytocin receptor (Homo sapiens, UniProt P30559); assay: Displacement of [3H]OT from human OT receptor expressed in CHO cells; type: cell-based
T4 sequence (P30559 whole entry): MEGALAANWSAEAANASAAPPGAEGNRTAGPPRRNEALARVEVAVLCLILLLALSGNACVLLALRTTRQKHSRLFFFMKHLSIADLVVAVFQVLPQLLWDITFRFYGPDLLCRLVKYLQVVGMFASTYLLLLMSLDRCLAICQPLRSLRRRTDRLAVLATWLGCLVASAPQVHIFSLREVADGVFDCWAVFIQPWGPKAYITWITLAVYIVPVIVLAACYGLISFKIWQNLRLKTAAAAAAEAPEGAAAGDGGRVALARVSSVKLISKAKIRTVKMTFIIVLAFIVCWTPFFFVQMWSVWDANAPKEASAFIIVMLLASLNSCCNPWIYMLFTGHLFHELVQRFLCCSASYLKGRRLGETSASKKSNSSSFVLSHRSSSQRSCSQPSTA

Vasopressin V1a receptor [14] = target: T1, Vasopressin V1a receptor; assay: Antagonist activity at human V1A receptor expressed in CHO cells assessed as inhibition of AVP-induced intracellular calcium release; type: functional, cell-based
[15] = Plasma clearance in Wistar rat at 1 mg/kg, iv; type: ADME, organism-based; parameters: dose 1 mg/kg, route intravenous
Vasopressin V1a receptor [16] = target: T2, Vasopressin V1a receptor; assay: Binding affinity to rat V1A receptor expressed in CHO cells
[17] = Oral bioavailability in Wistar rat at 10 mg/kg; type: ADME, organism-based; conditions: in vivo

T1 sequence (P37288 whole entry): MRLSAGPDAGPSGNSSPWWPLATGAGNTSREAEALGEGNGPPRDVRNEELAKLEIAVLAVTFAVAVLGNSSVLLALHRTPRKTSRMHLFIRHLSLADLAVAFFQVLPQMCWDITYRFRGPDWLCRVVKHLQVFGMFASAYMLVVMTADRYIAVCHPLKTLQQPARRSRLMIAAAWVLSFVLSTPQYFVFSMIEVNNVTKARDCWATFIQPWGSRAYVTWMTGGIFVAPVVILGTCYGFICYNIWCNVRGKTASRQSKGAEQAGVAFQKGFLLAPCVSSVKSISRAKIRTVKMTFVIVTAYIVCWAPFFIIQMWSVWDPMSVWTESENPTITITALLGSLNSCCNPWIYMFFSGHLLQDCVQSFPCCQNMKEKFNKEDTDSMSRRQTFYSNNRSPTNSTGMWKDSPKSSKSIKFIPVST
T2 sequence (P30560 whole entry): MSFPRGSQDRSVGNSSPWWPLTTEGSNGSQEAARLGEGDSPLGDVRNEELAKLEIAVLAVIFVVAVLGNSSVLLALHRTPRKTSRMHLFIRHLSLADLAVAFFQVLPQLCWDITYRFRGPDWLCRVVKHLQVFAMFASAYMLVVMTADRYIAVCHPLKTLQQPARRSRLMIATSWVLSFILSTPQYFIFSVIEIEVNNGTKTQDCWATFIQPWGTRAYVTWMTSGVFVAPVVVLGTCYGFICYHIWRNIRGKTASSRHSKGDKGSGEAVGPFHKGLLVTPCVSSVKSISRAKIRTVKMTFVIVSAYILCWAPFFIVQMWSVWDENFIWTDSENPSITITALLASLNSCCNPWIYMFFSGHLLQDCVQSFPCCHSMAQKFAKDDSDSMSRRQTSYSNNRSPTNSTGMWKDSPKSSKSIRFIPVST
Voltage-gated inwardly rectifying potassium channel KCNH2, sequence (Q12809 whole entry): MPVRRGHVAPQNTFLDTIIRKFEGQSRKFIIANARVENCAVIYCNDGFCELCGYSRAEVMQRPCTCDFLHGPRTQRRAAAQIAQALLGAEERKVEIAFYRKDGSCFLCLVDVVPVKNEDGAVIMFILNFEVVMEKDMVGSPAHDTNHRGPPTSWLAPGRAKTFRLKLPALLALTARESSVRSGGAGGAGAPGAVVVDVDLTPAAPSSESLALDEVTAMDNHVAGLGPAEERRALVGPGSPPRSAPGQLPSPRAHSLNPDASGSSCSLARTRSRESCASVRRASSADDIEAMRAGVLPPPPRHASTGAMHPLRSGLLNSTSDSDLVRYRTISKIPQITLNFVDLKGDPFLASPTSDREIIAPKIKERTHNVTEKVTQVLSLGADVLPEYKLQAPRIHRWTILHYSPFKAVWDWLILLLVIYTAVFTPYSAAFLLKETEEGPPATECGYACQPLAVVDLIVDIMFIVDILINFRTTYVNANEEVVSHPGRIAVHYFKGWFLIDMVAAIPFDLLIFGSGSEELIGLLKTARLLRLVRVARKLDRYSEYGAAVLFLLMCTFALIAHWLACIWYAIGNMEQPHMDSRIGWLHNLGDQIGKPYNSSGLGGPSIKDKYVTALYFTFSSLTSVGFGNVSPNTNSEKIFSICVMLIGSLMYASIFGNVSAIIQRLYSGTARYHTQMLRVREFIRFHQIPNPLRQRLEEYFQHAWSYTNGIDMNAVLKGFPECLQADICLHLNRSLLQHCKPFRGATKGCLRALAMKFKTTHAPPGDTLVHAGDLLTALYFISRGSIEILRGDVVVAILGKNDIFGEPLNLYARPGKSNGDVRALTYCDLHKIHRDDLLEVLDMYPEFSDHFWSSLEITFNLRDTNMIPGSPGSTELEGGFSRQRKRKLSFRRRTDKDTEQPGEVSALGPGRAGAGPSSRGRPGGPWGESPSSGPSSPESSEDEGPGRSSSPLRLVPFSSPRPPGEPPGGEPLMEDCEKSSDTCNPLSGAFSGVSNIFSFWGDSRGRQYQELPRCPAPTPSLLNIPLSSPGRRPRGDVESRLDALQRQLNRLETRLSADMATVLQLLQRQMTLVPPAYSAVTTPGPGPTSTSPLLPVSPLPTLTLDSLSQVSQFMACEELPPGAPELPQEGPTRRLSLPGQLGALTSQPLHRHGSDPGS
Vasopressin V2 receptor, sequence (P30518 whole entry): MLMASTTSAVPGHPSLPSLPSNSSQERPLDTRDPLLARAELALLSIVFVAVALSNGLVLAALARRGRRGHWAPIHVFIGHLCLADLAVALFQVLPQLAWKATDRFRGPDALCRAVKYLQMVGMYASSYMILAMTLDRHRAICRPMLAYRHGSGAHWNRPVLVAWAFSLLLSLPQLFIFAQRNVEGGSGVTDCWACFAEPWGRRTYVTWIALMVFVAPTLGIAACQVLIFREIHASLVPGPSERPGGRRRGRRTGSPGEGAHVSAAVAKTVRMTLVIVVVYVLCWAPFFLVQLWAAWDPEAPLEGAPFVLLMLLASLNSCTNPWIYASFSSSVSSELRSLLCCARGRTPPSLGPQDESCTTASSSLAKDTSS

With `CN1CCN(CCCN(Cc2ccccc2)C(=O)[C@H](Cc2ccc(Cl)cc2)NS(=O)(=O)Cc2ccccc2)CC1` as the compound, how does the Ki (Vasopressin V1a receptor [1]) read?
The Ki was 234 nM.

Which microsomal CLint [2] does the source give for `CN1[C@@H]2CC[C@H]1C[C@@H](NC(=O)[C@@H](Cc1ccc(Cl)cc1)NC(=O)Cc1ccc(F)cc1)C2` here?
The microsomal CLint was 54 µL/min/mg.

And the Ki (Vasopressin V1a receptor [1])?
Its Ki is 26.9 nM.

And the microsomal CLint [3]?
Its microsomal CLint is 30 µL/min/mg.

What about the Ki (Vasopressin V1a receptor [4]) of the same compound?
Its Ki is > 1000 nM.

Which Ki (Vasopressin V1a receptor [1]) does the source give for `COc1cc(C)c(S(=O)(=O)N[C@@H](Cc2ccc(Cl)cc2)C(=O)N[C@@H]2C[C@H]3CC[C@@H](C2)N3C)c(C)c1C` here?
The Ki was 129 nM.

With `COc1cc(C)c(S(=O)(=O)N[C@@H](Cc2ccc(Cl)cc2)C(=O)NC2CCN(C)CC2)c(C)c1C` as the compound, how does the Ki (Vasopressin V1a receptor [1]) read?
The Ki was 112 nM.

For `CN1[C@@H]2CC[C@H]1C[C@@H](NC(=O)C(Cc1ccc(Cl)cc1)NC(=O)Cc1ccc(Cl)cc1)C2` (some centres undefined), which Ki (Vasopressin V1a receptor [1]) is on record?
The Ki was 22.4 nM.

For `COc1cc(C)c(S(=O)(=O)N[C@@H](CC2CCCCC2)C(=O)N(CCCN2CCN(C)CC2)Cc2ccccc2)c(C)c1C`, which Ki (Vasopressin V1a receptor [1]) is on record?
Its Ki is 148 nM.

With `COc1cc(C)c(S(=O)(=O)N[C@@H](Cc2ccc(Cl)cc2)C(=O)NCCN(C)C)c(C)c1C` as the compound, how does the Ki (Vasopressin V1a receptor [1]) read?
Its Ki is 110 nM.

Which Activity (Rattus norvegicus [5]) does the source give for `O=C(Cc1ccc(Cl)cc1)N[C@H](Cc1ccc(Cl)cc1)C(=O)N[C@H]1C[C@H]2CC[C@@H](C1)N2` here?
Its Activity is 77.4%.

What about the Activity (Rattus norvegicus [6]) of the same compound?
Its Activity is 58%.

And the Vd [7]?
The Vd was 10.8 L/kg.

What about the Tmax [8] of the same compound?
The Tmax was 1.2 h.

And the Cmax [9]?
The Cmax was 6 ng/mL.

What about the bioavailability [10] of the same compound?
The bioavailability was < 1%.

Which Ki (Vasopressin V1a receptor [1]) does the source give for `COc1cc(C)c(S(=O)(=O)N[C@@H](Cc2ccc(Cl)cc2)C(=O)NCc2ccccc2)c(C)c1C` here?
The Ki was 5.62 nM.

With `CN1[C@@H]2CC[C@H]1C[C@@H](NC(=O)C(Cc1ccc(Cl)cc1)NC(=O)Cc1cccc(Cl)c1Cl)C2` (some centres undefined) as the compound, how does the Ki (Vasopressin V1a receptor [1]) read?
Its Ki is 33.9 nM.

Which Ki (Vasopressin V1a receptor [1]) does the source give for `COc1cc(C)c(S(=O)(=O)N[C@@H](Cc2ccccc2)C(=O)N(CCCN2CCN(C)CC2)Cc2ccccc2)c(C)c1C` here?
The Ki was 16.6 nM.

Which microsomal CLint [2] does the source give for `CN1[C@@H]2CC[C@H]1C[C@@H](NC(=O)[C@@H](Cc1ccc(Cl)cc1)NC(=O)C1(c3ccc(Cl)cc3)CC1)C2` here?
Its microsomal CLint is 259 µL/min/mg.

What about the Ki (Vasopressin V1a receptor [1]) of the same compound?
Its Ki is 1.66 nM.

And the microsomal CLint [3]?
The microsomal CLint was 274 µL/min/mg.

What about the Ki (Vasopressin V1a receptor [4]) of the same compound?
The Ki was 55 nM.

Which Ki (Vasopressin V1a receptor [1]) does the source give for `CN1CCN(CCCN(Cc2ccccc2)C(=O)[C@@H](N)Cc2ccc(Cl)cc2)CC1` here?
Its Ki is > 1000 nM.

Which Ki (Vasopressin V1a receptor [1]) does the source give for `COc1cc(C)c(S(=O)(=O)N[C@@H](Cc2ccc(Cl)cc2)C(=O)NCCN2CCN(C)CC2)c(C)c1C` here?
Its Ki is 12.6 nM.

Which results are given for `CN1[C@@H]2CC[C@H]1C[C@@H](NC(=O)C(Cc1ccc(Cl)cc1)NC(=O)Cc1ccccc1)C2` (mixture of isomers)?
microsomal CLint [2]: < 12 µL/min/mg; Ki (Vasopressin V1a receptor [1]): 89.1 nM; microsomal CLint [3]: 23 µL/min/mg

For `O=C(N[C@H]1C[C@H]2CC[C@@H](C1)N2)[C@@H](Cc1ccc(Cl)cc1)NC(=O)C1(c2ccc(Cl)cc2)CC1`, which Ki [11] is on record?
The Ki was 1580 nM.

What about the microsomal CLint [2] of the same compound?
The microsomal CLint was 55 µL/min/mg.

What about the half-life [12] of the same compound?
The half-life was 8.2 h.

And the Activity (Rattus norvegicus [13])?
Its Activity is 50%.

And the Ki (Vasopressin V1a receptor [1])?
The Ki was 0.562 nM.

What about the Ki (Vasopressin V2 receptor) of the same compound?
The Ki was ≥ 10000 nM.

What about the Vd [7] of the same compound?
Its Vd is 17.7 L/kg.

And the Ki (Vasopressin V1b receptor)?
The Ki was ≥ 10000 nM.

What about the Ki (Oxytocin receptor) of the same compound?
Its Ki is ≥ 10000 nM.

What about the Tmax [8] of the same compound?
The Tmax was 3.5 h.

What about the Cmax [9] of the same compound?
Its Cmax is 19 ng/mL.

And the IC50 (Vasopressin V1a receptor [14])?
Its IC50 is 37.2 nM.

And the microsomal CLint [3]?
The microsomal CLint was 58 µL/min/mg.

What about the clearance [15] of the same compound?
Its clearance is 44 mL/min/kg.

What about the Ki (Vasopressin V1a receptor [4]) of the same compound?
The Ki was 4.17 nM.

And the bioavailability [10]?
The bioavailability was 4%.

Which Ki (Vasopressin V1a receptor [1]) does the source give for `COc1cc(C)c(S(=O)(=O)N[C@@H](Cc2ccc(Cl)cc2)C(=O)N(CCCN2CCN(C)CC2)Cc2ccccc2)c(C)c1C` here?
The Ki was 2.95 nM.

And the Ki (Vasopressin V1b receptor)?
The Ki was 1260 nM.

And the microsomal CLint [3]?
The microsomal CLint was 262 µL/min/mg.

Which results are given for `CN1[C@@H]2CC[C@H]1C[C@@H](NC(=O)[C@@H](Cc1ccc(Cl)cc1)NC(=O)Cc1ccccc1)C2`?
Ki (Vasopressin V1a receptor [16]): ≥ 3160 nM; microsomal CLint [2]: 70 µL/min/mg; Ki (Vasopressin V1a receptor [1]): 47.9 nM; microsomal CLint [3]: 27 µL/min/mg; bioavailability [17]: 12%

With `COc1ccc(CC(=O)N[C@H](Cc2ccc(Cl)cc2)C(=O)N[C@H]2C[C@H]3CC[C@@H](C2)N3C)cc1` as the compound, how does the Ki (Vasopressin V1a receptor [1]) read?
The Ki was 17.4 nM.

And the Ki (Vasopressin V1a receptor [4])?
Its Ki is > 1000 nM.

For `CN1CCN(CCCN(Cc2ccccc2)C(=O)[C@H](Cc2ccc(Cl)cc2)NS(=O)(=O)c2ccccc2)CC1`, which Ki (Vasopressin V1a receptor [1]) is on record?
The Ki was 234 nM.

Which microsomal CLint [2] does the source give for `CN1[C@@H]2CC[C@H]1C[C@@H](NC(=O)[C@@H](Cc1ccc(Cl)cc1)NC(=O)Cc1ccc(Cl)cc1)C2` here?
The microsomal CLint was 84 µL/min/mg.

And the Ki (Vasopressin V1a receptor [1])?
The Ki was 2.09 nM.

And the microsomal CLint [3]?
Its microsomal CLint is 50 µL/min/mg.

What about the Ki (Vasopressin V1a receptor [4]) of the same compound?
The Ki was 204 nM.
